Assay: Compound was evaluated for its stability to dephosphorylation.
Assay type: physicochemical

Compound	half-life
Nc1ncnc2c1ncn2[C@@H]1C[C@@H](OCP(=O)(O)CP(=O)(O)O)[C@@H]2C[C@@H]21	> 10100 min
Nc1ncnc2c1ncn2[C@H]1C[C@H](OCP(=O)(O)CP(=O)(O)O)[C@H]2C[C@H]21	> 10100 min
Cc1cn([C@H]2C[C@H](N=[N+]=[N-])[C@@H](CO[P@](=O)(O)O[P@](=O)(O)OP(=O)(O)O)O2)c(=O)[nH]c1=O [ZIDOVUDINE TRIPHOSPHATE]	< 1 min
Nc1nc2c(ncn2[C@H]2C[C@H](O)[C@@H](COP(=O)(O)OP(=O)(O)OP(=O)(O)O)O2)c(=O)[nH]1 [DEOXYGUANOSINE TRIPHOSPHATE]	60 min
Nc1ncnc2c1ncn2[C@@H]1C[C@@H](OCP(=O)(O)OP(=O)(O)O)[C@@H]2C[C@@H]21	270 min
Nc1nc(O)c2ncn([C@@H]3C=C[C@H](OCP(=O)(O)OP(=O)(O)C(Br)(Br)P(=O)(O)O)C3)c2n1	> 10100 min
Nc1ncnc2c1ncn2[C@H]1C[C@H](OCP(=O)(O)OP(=O)(O)O)[C@H]2C[C@H]21	> 10100 min

The next lines start with the values.

half-life	Compound
240 min	Nc1nc(O)c2ncn([C@@H]3C=C[C@H](OCP(=O)(O)OP(=O)(O)OP(=O)(O)O)C3)c2n1
180 min	Nc1ncnc2c1ncn2[C@@H]1C=C[C@H](OCP(=O)(O)OP(=O)(O)OP(=O)(O)O)C1
50 min	Nc1ncnc2c1ncn2[C@H]1C[C@H](O)[C@@H](COP(=O)(O)OP(=O)(O)OP(=O)(O)O)O1
120 min	Nc1ncnc2c1ncn2[C@H]1C=C[C@@H](OCP(=O)(O)OP(=O)(O)OP(=O)(O)O)C1
> 10100 min	Nc1ncnc2c1ncn2[C@@H]1C=C[C@H](OCP(=O)(O)OP(=O)(O)C(Br)(Br)P(=O)(O)O)C1

— ChEMBL document CHEMBL1151022, “Modified triphosphates of carbocyclic nucleoside analogues: Synthesis, stability towards alkaline phosphatase and substrate properties for some DNA polymerases” (Bioorg Med Chem Lett, 1996)
